The text below walks through data of patent publication US11884671B2, “Purinone compounds and their use in treating cancer” (ASTRAZENECA AB, priority 2018, dated 2024).

In one data set the target is DNAPK (Homo sapiens (Human), UniProt P78527). In words: DNAPK cellular potency assay (DNA-PK cell), pS2056-DNAPK ELISA in irradiated A549 cells. The class given is cell-based. The note with it: 8 Gy radiation, arithmetic mean of two or more experiments, read-out: DNA-PK cell pIC50 (converted). On the procedure:
The DNAPK cell ELISA assay was performed in the A549 cell line. A549 cells were cultured in cell media composed of MEM-F12 (Minimum Essential Medium F12 Sigma #D6421), 10% (v/v) Foetal Calf Serum and 1% (v/v) 200 mM L-Glutamine. […] The following day the Greiner ELISA plates were washed 3× with PBS-T and blocked with 3% BSA/PBS for 2 h, before a further 3× wash with PBS-T.
The cell plates were then incubated for 1 h at 37° C. before receiving a radiation dose of 8 Gy (XRAD 320, table height 65). The cells were incubated for a further 1 h before removal of cell media. […] Cell lysates ([…]) were transferred to the DNAPK antibody-coated ELISA plates using a CyBio Felix liquid handling platform, and ELISA plates were incubated at 4° C. overnight.
The following day, ELISA plates were washed 3× with PBS-T and dispensed with in-house pS2056-DNAPK antibody (0.5 μg/mL in 3% BSA/PBS) at 20 ul/well.
The fluorescence intensity of individual wells was determined using a PerkinElmer EnVision plate reader.
Data was analysed and IC50 values were calculated using Genedata Screener® software (Genedata, Inc., Basel, Switzerland).

For another data set, the target named is JAK2 (Homo sapiens (Human), UniProt O60674). In words: JAK2 enzyme assay (Z'-LYTE). The class given is biochemical. To be noted: 25 μM ATP; arithmetic mean of two or more experiments. On the procedure:
(§1) The inhibitory activity of compounds against AURKA, AURKB, JAK1, JAK2 and JAK3 was determined in Z′-LYTE® assays run by ThermoFisher Scientific as part of their SelectScreen® Biochemical Kinase Profiling Service. The Z′-LYTE® biochemical assay format employs a fluorescence-based, coupled-enzyme format and is based on the differential sensitivity of phosphorylated and non-phosphorylated peptides to proteolytic cleavage. The peptide substrate is labeled with two fluorophores—one at each end—that make up a FRET pair. In the primary reaction, the kinase transfers the gamma-phosphate of ATP to a single tyrosine, serine or threonine residue in a synthetic FRET-peptide. In the secondary reaction, a site-specific protease recognises and cleaves non-phosphorylated FRET-peptides. Phosphorylation of FRET-peptides suppresses cleavage by the Development Reagent. Cleavage disrupts FRET between the donor (i.e., coumarin) and acceptor (i.e., fluorescein) fluorophores on the FRET-peptide, whereas uncleaved, phosphorylated FRET-peptides maintain FRET. A ratiometric method, which calculates the ratio (the Emission Ratio) of donor emission to acceptor emission after excitation of the donor fluorophore at 400 nm, is used to quantitate reaction progress. Both cleaved and uncleaved FRET-peptides contribute to the fluorescence signals and therefore to the Emission Ratio. The extent of phosphorylation of the FRET-peptide can be calculated from the Emission Ratio.
(§2) 10 point three-fold dilution compound concentration-response curves, with a top concentration of 10 μM were generated from 10 mM stocks of compound solubilised in DMSO. All assays were performed in black, non-binding, low volume Corning 384-well plates (cat. #4514, Corning), in a total reaction volume of 10 μL and 1% (v/v) final DMSO concentration. […] The kinase reaction was then quenched by the addition of 5 μL of Development Reagent (ThermoFisher Scientific proprietary). […] IC50 values were calculated using XLfit software (IDBS Ltd, Surrey, UK), with the curve fit to model number 205 (sigmoidal dose-response model).
JAK2: The 2×JAK2/Tyr 06 (ThermoFisher Scientific proprietary) mixture was prepared in 50 mM HEPES pH 7.5, 0.01% BRIJ-35, 10 mM MgCl2, 1 mM EGTA. […] After the 1 hour Kinase Reaction incubation, 5 μL of a 1:128 dilution of Development Reagent was added.

The target in a further data set is TTK (Homo sapiens (Human), UniProt P33981). Nature of the data set: TTK enzyme assay (LanthaScreen Eu Kinase Binding). The note with it: arithmetic mean of two or more experiments. Here is the method: The inhibitory activity of compounds against TTK was determined in a LanthaScreen® Eu Kinase Binding assay run by ThermoFisher Scientific as part of their SelectScreen® Biochemical Kinase Profiling Service. The LanthaScreen® Eu Kinase Binding assay format uses binding of an Alexa Fluor® conjugate or “tracer” to a kinase, which is detected by addition of a Eu-labeled anti-tag antibody. […] The degree of FRET measured in the assay is used to determine the binding of a compound.
Chain of TTK (P33981 whole entry): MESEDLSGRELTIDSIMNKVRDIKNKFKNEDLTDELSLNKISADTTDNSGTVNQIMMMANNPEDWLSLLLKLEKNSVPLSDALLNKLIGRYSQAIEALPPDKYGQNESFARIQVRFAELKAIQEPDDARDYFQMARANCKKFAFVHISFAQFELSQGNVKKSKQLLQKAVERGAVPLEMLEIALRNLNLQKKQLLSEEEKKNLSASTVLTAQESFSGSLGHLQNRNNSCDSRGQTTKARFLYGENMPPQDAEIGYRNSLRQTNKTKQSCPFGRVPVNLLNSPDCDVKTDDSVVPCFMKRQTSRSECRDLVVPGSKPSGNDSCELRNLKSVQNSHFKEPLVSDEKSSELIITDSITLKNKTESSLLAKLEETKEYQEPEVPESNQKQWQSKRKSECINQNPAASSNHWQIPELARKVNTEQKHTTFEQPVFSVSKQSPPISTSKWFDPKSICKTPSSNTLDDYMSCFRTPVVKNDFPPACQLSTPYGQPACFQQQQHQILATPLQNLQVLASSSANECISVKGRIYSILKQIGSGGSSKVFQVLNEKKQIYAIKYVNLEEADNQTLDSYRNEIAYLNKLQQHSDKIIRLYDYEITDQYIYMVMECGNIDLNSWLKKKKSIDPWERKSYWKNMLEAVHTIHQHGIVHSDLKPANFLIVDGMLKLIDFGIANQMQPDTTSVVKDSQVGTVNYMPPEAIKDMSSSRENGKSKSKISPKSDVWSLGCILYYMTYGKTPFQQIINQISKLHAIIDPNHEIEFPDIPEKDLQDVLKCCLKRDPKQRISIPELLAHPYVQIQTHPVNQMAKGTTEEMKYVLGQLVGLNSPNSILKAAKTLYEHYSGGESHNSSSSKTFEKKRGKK
10 point three-fold dilution compound concentration-response curves, with a top concentration of 10 μM were generated from 10 mM stocks of compound solubilised in DMSO. All assays were performed in white, low volume Greiner 384-well plates (cat. #784207, Greiner), in a total reaction volume of 16 μL and 1% (v/v) final DMSO concentration. […] Plates were then read using a fluorescence plate reader. IC50 values were calculated using XLfit software (IDBS Ltd, Surrey, UK), with the curve fit to model number 205 (sigmoidal dose-response model).

The next data set deals with JAK3 (Homo sapiens (Human), UniProt P52333). Nature of the data set: JAK3 enzyme assay (Z'-LYTE). To be noted: 10 μM ATP; arithmetic mean of two or more experiments. The class given is biochemical. On the procedure: as §1, §2
Chain of JAK3 (P52333 whole entry): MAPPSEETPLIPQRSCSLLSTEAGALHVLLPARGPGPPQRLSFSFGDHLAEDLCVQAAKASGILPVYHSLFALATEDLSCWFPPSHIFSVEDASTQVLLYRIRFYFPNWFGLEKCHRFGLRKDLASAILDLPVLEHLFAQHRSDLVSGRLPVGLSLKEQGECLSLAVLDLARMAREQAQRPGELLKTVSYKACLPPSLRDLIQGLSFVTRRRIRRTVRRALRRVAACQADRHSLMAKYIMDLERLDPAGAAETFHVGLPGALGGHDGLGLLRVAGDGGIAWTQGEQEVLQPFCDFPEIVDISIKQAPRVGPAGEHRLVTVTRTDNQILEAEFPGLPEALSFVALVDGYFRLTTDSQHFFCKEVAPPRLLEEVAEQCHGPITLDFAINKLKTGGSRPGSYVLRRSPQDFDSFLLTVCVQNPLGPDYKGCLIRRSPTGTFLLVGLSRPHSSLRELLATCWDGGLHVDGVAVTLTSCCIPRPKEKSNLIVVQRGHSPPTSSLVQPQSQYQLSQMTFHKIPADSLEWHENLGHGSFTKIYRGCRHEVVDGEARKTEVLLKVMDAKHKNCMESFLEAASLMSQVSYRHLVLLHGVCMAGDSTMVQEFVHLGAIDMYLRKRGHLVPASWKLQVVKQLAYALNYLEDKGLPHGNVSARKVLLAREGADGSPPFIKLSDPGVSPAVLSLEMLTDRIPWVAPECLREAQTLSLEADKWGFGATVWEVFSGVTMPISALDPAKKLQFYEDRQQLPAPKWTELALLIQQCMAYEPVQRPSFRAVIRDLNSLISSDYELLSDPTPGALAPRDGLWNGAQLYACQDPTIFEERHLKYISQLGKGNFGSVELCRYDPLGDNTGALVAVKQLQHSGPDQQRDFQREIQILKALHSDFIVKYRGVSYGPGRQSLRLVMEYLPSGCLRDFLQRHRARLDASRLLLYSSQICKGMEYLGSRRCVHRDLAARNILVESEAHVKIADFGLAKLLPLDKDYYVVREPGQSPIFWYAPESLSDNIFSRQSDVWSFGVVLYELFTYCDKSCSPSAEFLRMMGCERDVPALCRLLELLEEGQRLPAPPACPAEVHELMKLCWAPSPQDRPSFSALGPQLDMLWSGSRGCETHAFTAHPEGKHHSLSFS
JAK3: The 2×JAK3/Tyr 06 (ThermoFisher Scientific proprietary) mixture was prepared in 50 mM HEPES pH 7.5. 0.01% BRIJ-35, 10 mM MgCl2, 1 mM EGTA. […] After the 1 hour Kinase Reaction incubation, 5 μL of a 1:128 dilution of Development Reagent was added.

The target of the next data set is AURKA (Aurora A) (Homo sapiens (Human), UniProt O14965). In words: Aurora-A enzyme assay (Z'-LYTE). The data set is classed as biochemical. The note with it: 10 μM ATP; arithmetic mean of two or more experiments. On the procedure: as §1, §2
Chain of AURKA (Aurora A) (O14965 whole entry): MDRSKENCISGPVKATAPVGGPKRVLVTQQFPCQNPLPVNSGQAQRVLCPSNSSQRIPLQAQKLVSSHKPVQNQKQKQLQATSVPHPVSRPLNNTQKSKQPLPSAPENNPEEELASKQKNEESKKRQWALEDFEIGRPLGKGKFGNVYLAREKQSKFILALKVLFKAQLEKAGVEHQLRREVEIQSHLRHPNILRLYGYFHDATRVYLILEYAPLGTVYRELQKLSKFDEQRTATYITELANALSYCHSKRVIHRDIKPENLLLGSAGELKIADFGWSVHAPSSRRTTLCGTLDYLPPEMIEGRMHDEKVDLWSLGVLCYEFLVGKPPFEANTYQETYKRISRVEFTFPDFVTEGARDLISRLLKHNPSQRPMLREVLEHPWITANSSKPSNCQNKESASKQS
Aurora A (AurA): The 2×AURKA (Aurora A)/Ser/Thr 01 (ThermoFisher Scientific proprietary) mixture was prepared in 50 mM HEPES pH 7.5, 0.01% BRIJ-35, 10 mM MgCl2, 1 mM EGTA. […] After the 1 hour Kinase Reaction incubation, 5 μL of a 1:4096 dilution of Development Reagent was added.

Another data set has as its target AURKB (Aurora B) (Homo sapiens (Human), UniProt Q96GD4). In words: Aurora-B enzyme assay (Z'-LYTE). The data set is classed as biochemical. To be noted: 75 μM ATP; arithmetic mean of two or more experiments. Here is the method:
as §1, §2
Aurora B (AurB): The 2×AURKB (Aurora B)/Ser/Thr 01 (ThermoFisher Scientific proprietary) mixture was prepared in 50 mM HEPES pH 7.5, 0.01% BRIJ-35, 10 mM MgCl2, 1 mM EGTA. […] After the 1 hour Kinase Reaction incubation, 5 μL of a 1:4096 dilution of Development Reagent was added.

A further data set concerns the target JAK1 (Homo sapiens (Human), UniProt P23458). Nature of the data set: JAK1 enzyme assay (Z'-LYTE). The class given is biochemical. The note with it: 75 μM ATP; arithmetic mean of two or more experiments. Here is the method: as §1, §2
JAK1: The 2×JAK/Tyr 06 (ThermoFisher Scientific proprietary) mixture was prepared in 50 mM HEPES pH 6.5, 0.01% BRIJ-35, 10 mM MgCl2, 1 mM EGTA, 0.02% NaN3. […] After the 1 hour Kinase Reaction incubation, 5 μL of a 1:128 dilution of Development Reagent was added.

The next data set is described as follows: Discrete PK Rat. The data set is classed as in vivo, han wistar rats. The note with it: Han Wistar, plasma, iv, read-out: volume of distribution (V).
A short description of another data set: Discrete PK Dog. To be noted: beagle, iv, 0.5 mg/kg.

Chain of AURKB (Aurora B) (Q96GD4 whole entry): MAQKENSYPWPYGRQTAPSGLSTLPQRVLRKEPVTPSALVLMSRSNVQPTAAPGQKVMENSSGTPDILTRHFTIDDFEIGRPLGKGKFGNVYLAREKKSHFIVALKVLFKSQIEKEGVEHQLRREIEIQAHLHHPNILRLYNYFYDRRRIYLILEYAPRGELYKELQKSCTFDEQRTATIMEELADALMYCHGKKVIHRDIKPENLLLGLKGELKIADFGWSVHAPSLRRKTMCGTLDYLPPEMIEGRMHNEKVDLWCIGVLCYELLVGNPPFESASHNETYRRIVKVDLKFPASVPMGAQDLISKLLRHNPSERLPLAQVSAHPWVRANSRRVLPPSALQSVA
Chain of JAK1 (P23458 whole entry): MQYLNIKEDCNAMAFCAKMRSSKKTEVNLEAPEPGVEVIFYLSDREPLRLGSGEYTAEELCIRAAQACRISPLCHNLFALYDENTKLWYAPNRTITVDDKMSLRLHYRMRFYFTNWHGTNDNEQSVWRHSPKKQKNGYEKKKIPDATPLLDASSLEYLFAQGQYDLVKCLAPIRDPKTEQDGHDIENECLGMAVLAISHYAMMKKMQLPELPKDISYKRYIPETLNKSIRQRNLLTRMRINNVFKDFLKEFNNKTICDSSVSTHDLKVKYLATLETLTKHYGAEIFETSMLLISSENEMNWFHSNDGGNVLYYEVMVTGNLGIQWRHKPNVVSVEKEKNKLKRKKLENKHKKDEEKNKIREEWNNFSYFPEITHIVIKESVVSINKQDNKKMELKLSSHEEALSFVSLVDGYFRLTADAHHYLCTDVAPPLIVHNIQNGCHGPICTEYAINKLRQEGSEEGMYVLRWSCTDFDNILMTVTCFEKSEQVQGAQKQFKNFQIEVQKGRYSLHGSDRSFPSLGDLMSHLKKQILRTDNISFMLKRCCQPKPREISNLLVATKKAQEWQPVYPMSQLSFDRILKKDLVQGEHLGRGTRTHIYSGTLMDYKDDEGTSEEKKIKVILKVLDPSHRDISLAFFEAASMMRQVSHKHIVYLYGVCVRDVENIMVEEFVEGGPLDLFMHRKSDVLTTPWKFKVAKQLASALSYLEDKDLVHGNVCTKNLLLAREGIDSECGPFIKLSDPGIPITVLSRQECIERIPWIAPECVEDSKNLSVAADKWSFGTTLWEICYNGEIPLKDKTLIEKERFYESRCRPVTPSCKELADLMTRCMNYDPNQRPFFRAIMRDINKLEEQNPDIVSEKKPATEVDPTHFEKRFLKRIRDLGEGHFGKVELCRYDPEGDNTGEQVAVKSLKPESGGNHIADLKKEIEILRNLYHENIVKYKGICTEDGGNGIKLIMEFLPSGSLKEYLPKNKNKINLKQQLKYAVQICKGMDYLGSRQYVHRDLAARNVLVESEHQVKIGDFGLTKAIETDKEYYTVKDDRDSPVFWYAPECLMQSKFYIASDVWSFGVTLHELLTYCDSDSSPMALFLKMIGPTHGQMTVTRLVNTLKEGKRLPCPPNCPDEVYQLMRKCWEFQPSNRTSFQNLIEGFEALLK
Chain of JAK2 (O60674 whole entry): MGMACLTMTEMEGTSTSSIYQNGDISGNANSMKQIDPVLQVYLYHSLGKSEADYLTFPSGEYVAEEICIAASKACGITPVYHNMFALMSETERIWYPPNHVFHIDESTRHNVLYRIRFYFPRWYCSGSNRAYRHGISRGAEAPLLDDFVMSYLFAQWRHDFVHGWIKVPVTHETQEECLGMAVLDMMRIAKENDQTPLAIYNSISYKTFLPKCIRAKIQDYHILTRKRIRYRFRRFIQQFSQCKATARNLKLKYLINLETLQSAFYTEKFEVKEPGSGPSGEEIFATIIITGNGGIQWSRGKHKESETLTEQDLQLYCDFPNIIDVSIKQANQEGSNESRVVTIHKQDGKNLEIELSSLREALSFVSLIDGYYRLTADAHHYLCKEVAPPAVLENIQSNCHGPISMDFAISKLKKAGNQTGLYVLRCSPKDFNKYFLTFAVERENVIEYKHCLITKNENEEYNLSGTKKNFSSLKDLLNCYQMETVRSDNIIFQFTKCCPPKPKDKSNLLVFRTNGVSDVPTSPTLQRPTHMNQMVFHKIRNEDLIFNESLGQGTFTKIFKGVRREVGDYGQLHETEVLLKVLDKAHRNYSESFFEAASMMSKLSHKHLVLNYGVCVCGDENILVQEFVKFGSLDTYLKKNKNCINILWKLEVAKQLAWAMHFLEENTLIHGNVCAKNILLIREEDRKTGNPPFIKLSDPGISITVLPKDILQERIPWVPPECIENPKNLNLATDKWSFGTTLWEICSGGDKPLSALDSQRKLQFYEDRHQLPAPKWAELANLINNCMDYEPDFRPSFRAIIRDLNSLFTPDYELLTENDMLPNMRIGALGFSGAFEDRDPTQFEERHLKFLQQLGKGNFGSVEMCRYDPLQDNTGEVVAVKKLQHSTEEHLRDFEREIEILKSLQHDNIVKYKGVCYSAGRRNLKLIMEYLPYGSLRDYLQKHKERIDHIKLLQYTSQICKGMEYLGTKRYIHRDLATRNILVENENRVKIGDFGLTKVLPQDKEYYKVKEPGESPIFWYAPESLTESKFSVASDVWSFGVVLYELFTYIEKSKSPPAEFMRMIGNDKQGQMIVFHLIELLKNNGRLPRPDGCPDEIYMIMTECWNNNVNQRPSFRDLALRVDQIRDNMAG

In the case of `Cc1cc2ncccc2cc1Nc1ncc2c(n1)n([C@H]1CC[C@@](C)(O)CC1)c(=O)n2C` [Example 14, 9-((1s,4s)-4-hydroxy-4-methylcyclohexyl)-7-methyl-2-((7-methylquinolin-6-yl)amino)-7,9-dihydro-8H-purin-8-one], the IC50 on DNAPK is 10 nM.

Turning to `Cc1cc2ncccc2cc1Nc1ncc2c(n1)n([C@H]1CC[C@](C)(O)CC1)c(=O)n2C` [Example 15, 9-((1r,4r)-4-hydroxy-4-methylcyclohexyl)-7-methyl-2-((7-methylquinolin-6-yl)amino)-7,9-dihydro-8H-purin-8-one], on DNAPK, the IC50 is 15.8 nM.

Regarding `Cc1cc2nnccc2cc1Nc1ncc2c(n1)n([C@H]1CC[C@@](C)(O)CC1)c(=O)n2C` [Example 16, 9-((1s,4s)-4-hydroxy-4-methylcyclohexyl)-7-methyl-2-((7-methylcinnolin-6-yl)amino)-7,9-dihydro-8H-purin-8-one], the IC50 at DNAPK is 15.8 nM.

For `Cc1cc2nnccc2cc1Nc1ncc2c(n1)n([C@H]1CC[C@](C)(O)CC1)c(=O)n2C` [Example 17, 9-((1r,4r)-4-hydroxy-4-methylcyclohexyl)-7-methyl-2-((7-methylcinnolin-6-yl)amino)-7,9-dihydro-8H-purin-8-one], the IC50 at DNAPK is 100 nM.

With `Cc1cc2nnccc2cc1Nc1ncc2c(n1)n(C1CCOCC1)c(=O)n2C` [Example 29, 7-methyl-2-((7-methylcinnolin-6-yl)amino)-9-(tetrahydro-2H-pyran-4-yl)-7,9-dihydro-8H-purin-8-one], the “JAK2 enz pIC50” value at JAK2 is recorded as below 5. For the same molecule, the “TTK enz pIC50” value on TTK is on record as 6.4. Moreover, the “JAK3 enz pIC50” value on JAK3 is on record as below 5. In addition, the “AurA enz pIC50” value on AURKA (Aurora A) is below 5. Further, the “AurB enz pIC50” value at AURKB (Aurora B) is below 5. Also, the “JAK1 enz pIC50” value on JAK1 is on record as below 5.

In the case of `Cc1cc2ncccc2cc1Nc1ncc2c(n1)n(C1CCOCC1)c(=O)n2C` [Example 30, 7-methyl-2-((7-methylquinolin-6-yl)amino)-9-(tetrahydro-2H-pyran-4-yl)-7,9-dihydro-8H-purin-8-one], the “JAK2 enz pIC50” value on JAK2 was below 5. For the same molecule, the “TTK enz pIC50” value on TTK worked out at 6.4. Also, the “JAK3 enz pIC50” value at JAK3 is listed as below 5. In addition, the “AurA enz pIC50” value at AURKA (Aurora A) is below 5. For the same molecule, at AURKB (Aurora B), the “AurB enz pIC50” value is reported as below 5. For the same molecule, on JAK1, the “JAK1 enz pIC50” value is below 5.

Regarding `Cc1cc2ncccc2cc1Nc1ncc2c(n1)n([C@@H]1CCN(C)C1)c(=O)n2C` [Example 41, (R)-7-methyl-9-(1-methylpyrrolidin-3-yl)-2-((7-methylquinolin-6-yl)amino)-7,9-dihydro-8H-purin-8-one], on JAK2, the “JAK2 enz pIC50” value is reported as below 5. In addition, the “TTK enz pIC50” value on TTK was below 5.1. Further, the “JAK3 enz pIC50” value on JAK3 is reported as below 5. In addition, at AURKA (Aurora A), the “AurA enz pIC50” value is below 5. Also, the “AurB enz pIC50” value on AURKB (Aurora B) was below 5. In addition, the “JAK1 enz pIC50” value on JAK1 is recorded as below 5.

Turning to `Cc1cc2ncccc2cc1Nc1ncc2c(n1)n([C@H]1CCN(C)C1)c(=O)n2C` [Example 42, (S)-7-methyl-9-(1-methylpyrrolidin-3-yl)-2-((7-methylquinolin-6-yl)amino)-7,9-dihydro-8H-purin-8-one], the “JAK2 enz pIC50” value on JAK2 is listed as below 5. For the same molecule, at TTK, the “TTK enz pIC50” value is recorded as below 5.1. For the same molecule, the “JAK3 enz pIC50” value on JAK3 is reported as below 5. Further, the “AurA enz pIC50” value on AURKA (Aurora A) was below 5. Further, the “AurB enz pIC50” value at AURKB (Aurora B) was below 5. Moreover, the “JAK1 enz pIC50” value at JAK1 is given as below 5.

As for `Cc1cc2nnccc2cc1Nc1ncc2c(n1)n(C1CCN(C)CC1)c(=O)n2C` [Example 43, 7-methyl-2-((7-methylcinnolin-6-yl)amino)-9-(1-methylpiperidin-4-yl)-7,9-dihydro-8H-purin-8-one], the “JAK2 enz pIC50” value at JAK2 is below 5. Besides, the “TTK enz pIC50” value at TTK is below 5. Besides, the “JAK3 enz pIC50” value at JAK3 is given as below 5. Further, at AURKA (Aurora A), the “AurA enz pIC50” value is reported as below 5. For the same molecule, the “AurB enz pIC50” value at AURKB (Aurora B) is reported as below 5. The “JAK1 enz pIC50” value on JAK1 was below 5.

For the molecule `Cc1cc2ncccc2cc1Nc1ncc2c(n1)n(C1CCN(C)CC1)c(=O)n2C` [Example 44, 7-methyl-9-(1-methylpiperidin-4-yl)-2-((7-methylquinolin-6-yl)amino)-7,9-dihydro-8H-purin-8-one], the figures for the Vd in “Discrete PK Rat” and in “Discrete PK Dog” (plasma) were 3.4 L/kg and 7.8 L/kg, respectively.

`Cc1cc2ncccc2cc1Nc1ncc2c(n1)n([C@@H]1CNC[C@H]1F)c(=O)n2C` [Example 52, 9-((3R,4R)-4-fluoropyrrolidin-3-yl)-7-methyl-2-((7-methylquinolin-6-yl)amino)-7,9-dihydro-8H-purin-8-one]: the Vd in “Discrete PK Rat” was 1.65 L/kg; in “Discrete PK Dog” (in vivo), 5.4 L/kg.
